Converted amounts (≈) assume the structure as drawn.
Key:
[1] = system: 5 major human cytochrome P450 isoforms (CYPs); test: Inhibition of cytochrome P450 isoforms in vitro; format: in vitro ADME
Enterobacter spp. (EB) = test: MIC, broth microdilution, Brooklyn hospital isolates: Enterobacter spp.; format: cell-based; details: Enterobacter; EB (n = 30)
Protocol: In another study, the activity of Compound 1 against a collection of contemporary Gram-negative bacteria was determined. Unique patient isolates of P. aeruginosa (PA), A. baumannii (AB), K. pneumoniae (KP), E. coli (EC), and Enterobacter spp. (EB) from prior surveys at 16 Brooklyn, N.Y. hospitals were selected based on resistance patterns. The majority of isolates were fingerprinted by automated ribotyping. MICs were performed by broth microdilution. PCR was used to identify aminoglycoside-modifying enzymes (AMEs) in AB and KP and the KPC gene in Enterobacteriaceae (EN). The expression of the efflux genes mexA, C, E and X in PA, and adeB in AB was assessed by real-time RT-PCR.

[2] = GLP 14-day repeat-dose safety study in rat; format: in vivo
Source text: The Food and Drug Administration (FDA) has provided general guidance for estimating the maximum recommended starting dose (MRSD) for initial human clinical trials. The guidance states that the MRSD must be derived from the no observable adverse effect level (NOAEL) obtained in Good Laboratory Practice (GLP) nonclinical animal safety studies. The NOAEL for Compound 1 has been determined in GLP 14-day repeat-dose safety studies in both rat and dog. Estimation of the human equivalent dose (HED) at the NOAEL is based on both a surface area conversion factor (SACF) and the data from these studies. Based on this standard methodology, the HED for the predicted NOAEL in each species has been determined and is presented in Table 18.

P. aeruginosa (PSA) = test: MIC, CLSI broth microdilution, worldwide isolates: P. aeruginosa; format: cell-based
Source text: In the first study, a total of 235 isolates were collected from medical centers worldwide and tested for susceptibility to Compound 1 and comparator agents by CLSI broth microdilution methods. […] Non-ENT GN pathogens included WT P. aeruginosa (PSA) and Acinetobacter spp. (ACB), and carbapenem (CARB)-R strains, including those with MBL and OXA enzymes, SA and coagulase-negative staphylococci (CoNS) included oxacillin-susceptible (MSSA/MS-CoNS) and —R (MRSA/MR-CoNS) strains.
Minimum inhibitory concentrations (MIC) were determined by reference Clinical and Laboratory Standards Institute (CLSI) broth microdilution methods per M7-A7 [2006]. Briefly, serial two-fold dilutions of Compound 1 and comparator AGs (together, “the test compounds”) were prepared at 2× concentration in appropriate diluent. The dilutions were mixed in 96-well assay plates with bacterial inoculum. Bacteria were suspended in sterile saline and added to each assay plate to obtain a final concentration of 5.5×10^5 CFU/mL. The plates were incubated at 35° C. for 20 hours in ambient air. […] After incubation, assay plates were read using a microtiter plate reader at 600 nm.

[3] = Pseudomonas aeruginosa, PSA isolates

CN[C@@H]1[C@@H](O)[C@@H](O[C@@H]2[C@@H](O)[C@H](O[C@H]3OC(CNCCO)=CC[C@H]3N)[C@@H](N)C[C@H]2NC(=O)[C@@H](O)CCN)OC[C@]1(C)O [Compound 1, 6′-(2-Hydroxy-ethyl)-1-(4-amino-2(S)-hydroxy-butyryl)-sisomicin]
inhibition of the 5 major human CYPs [1]: did not inhibit | MIC50 (Enterobacter spp. (EB)): 1 µg/mL (≈ 1.69 µM) | MIC90 (Enterobacter spp. (EB)): 4 µg/mL (≈ 6.75 µM) | HED ([2]; from rat NOAEL, SACF 6.2): 1.3 mg/kg | new toxicities ([2]; nonclinical GLP safety studies in rats): no new toxicities apart from those already known to the class | NOAEL at 14 days ([2]; rat, in vivo): 8 mg/kg | Cumulative % inhibited at Cmpd. MIC 1 (P. aeruginosa (PSA); PSA (30)): 3.3% | Cumulative % inhibited at Cmpd. MIC 2 (P. aeruginosa (PSA); PSA (30)): 3.3% | Cumulative % inhibited at Cmpd. MIC 4 (P. aeruginosa (PSA); PSA (30)): 30.0% | Cumulative % inhibited at Cmpd. MIC 8 (P. aeruginosa (PSA); PSA (30)): 50.0% | Cumulative % inhibited at Cmpd. MIC 16 (P. aeruginosa (PSA); PSA (30)): 76.7% | Cumulative % inhibited at Cmpd. MIC 32 (P. aeruginosa (PSA); PSA (30)): 96.7% | Cumulative % inhibited at Cmpd. MIC 64 (P. aeruginosa (PSA); PSA (30)): 96.7% | Cumulative % inhibited at Cmpd. MIC >64 (P. aeruginosa (PSA); PSA (30)): 100.0% | Cumulative % inhibited at Cmpd. MIC ≦0.5 (P. aeruginosa (PSA); PSA (30)): 0.0% | Cumulative % inhibited at Cmpd. MIC 1 (P. aeruginosa (PSA); PSA, CARB-R (20)): 0.0% | Cumulative % inhibited at Cmpd. MIC 2 (P. aeruginosa (PSA); PSA, CARB-R (20)): 0.0% | Cumulative % inhibited at Cmpd. MIC 4 (P. aeruginosa (PSA); PSA, CARB-R (20)): 10.0% | Cumulative % inhibited at Cmpd. MIC 8 (P. aeruginosa (PSA); PSA, CARB-R (20)): 25.0% | Cumulative % inhibited at Cmpd. MIC 16 (P. aeruginosa (PSA); PSA, CARB-R (20)): 65.0% | Cumulative % inhibited at Cmpd. MIC 32 (P. aeruginosa (PSA); PSA, CARB-R (20)): 95.0% | Cumulative % inhibited at Cmpd. MIC 64 (P. aeruginosa (PSA); PSA, CARB-R (20)): 95.0% | Cumulative % inhibited at Cmpd. MIC >64 (P. aeruginosa (PSA); PSA, CARB-R (20)): 100.0% | Cumulative % inhibited at Cmpd. MIC ≦0.5 (P. aeruginosa (PSA); PSA, CARB-R (20)): 0.0% | Cumulative % inhibited at Cmpd. MIC 1 (P. aeruginosa (PSA); PSA, WT (10)): 10.0% | Cumulative % inhibited at Cmpd. MIC 2 (P. aeruginosa (PSA); PSA, WT (10)): 10.0% | Cumulative % inhibited at Cmpd. MIC 4 (P. aeruginosa (PSA); PSA, WT (10)): 70.0% | Cumulative % inhibited at Cmpd. MIC 8 (P. aeruginosa (PSA); PSA, WT (10)): 100.0% | Cumulative % inhibited at Cmpd. MIC ≦0.5 (P. aeruginosa (PSA); PSA, WT (10)): 0.0% | MIC50 (P. aeruginosa (PSA); [3]): 8 µg/mL (≈ 13.5 µM) | MIC90 (P. aeruginosa (PSA); [3]): 32 µg/mL (≈ 54 µM)

— patent US20120208781A1, “AMINOGLYCOSIDE DOSING REGIMENS” (Achaogen, Inc., priority 2009, published 2012)
